Test results published in patent publication US4734409A, “Cephalosporin derivative, process for producing the same and pharmaceutical composition containing the same” (Kureha Kagaku Kogyo Kabushiki Kaisha, priority 1984, dated 1988).

Experiments:
[1] = system: Escherichia coli; test: Effect on the intestinal bacterial colonies: E. coli in feces; format: in vivo, Escherichia coli (feces of female ICR-JCL mice); conditions: after administration; 100 mg/kg orally once a day, 2 days; before administration 6.4
Protocol: (§1) Effect of the present compound on the intestinal bacterial colonies was examined as follows.
(§2) The present compound prepared in Example 2 was orally administered to each of 5 animals of a group of female ICR-JCL mice of 6-weeks-old at a daily dosage of 100 mg/kg once a day for continuous 2 days. Feces of each of the mice were collected before and after one day of the administration, and after diluting thereof with 100 times by weight of an anaerobic diluent (an aqueous phosphoric acid buffer) the thus diluted feces were ground, and 0.1 ml of the thus ground and diluted feces was smeared on each culture medium for each bacterial species (shown in Table 1).
(§3) After incubating the thus prepared culture media at 25° C. for one to five days aerobically in the cases of Escherichia coli, Pseudomonas aeruginosa and the Streptococcus species or anaerobically in the cases of the Lactobacillus acidophilus, Lactobacillus bifidus and the Bacterioides species, the number of each bacteria proliferating on the culture medium was counted.
DHL aerobic, 37° C., one day

[2] = system: Pseudomonas aeruginosa; test: Effect on the intestinal bacterial colonies: P. aeruginosa in feces; format: in vivo, Pseudomonas aeruginosa (feces of female ICR-JCL mice); conditions: after administration; 100 mg/kg orally once a day, 2 days; before administration <3.0
Protocol: as §1, §2, §3
(2) Pseudomonas aeruginosa

[3] = system: Streptococcus sp.; test: Effect on the intestinal bacterial colonies: Streptococcus sp. in feces; format: in vivo, Streptococcus sp. (feces of female ICR-JCL mice); conditions: after administration; 100 mg/kg orally once a day, 2 days; before administration 6.8
Protocol: as §1, §2, §3
TATAC the same as above

[4] = system: Lactobacillus acidophilus; test: Effect on the intestinal bacterial colonies: L. acidophilus in feces; format: in vivo, Lactobacillus acidophilus (feces of female ICR-JCL mice); conditions: after administration; 100 mg/kg orally once a day, 2 days; before administration 9.0
Protocol: as §1, §2, §3
(4) Lactobacillus acidophilus
LBS anaerobic, 37° C., 5 days

[5] = system: Lactobacillus bifidus; test: Effect on the intestinal bacterial colonies: L. bifidus in feces; format: in vivo, Lactobacillus bifidus (feces of female ICR-JCL mice); conditions: after administration; 100 mg/kg orally once a day, 2 days; before administration 8.5
Protocol: as §1, §2, §3
(5) Lactobacillus bifidus

[6] = system: Bacteroides sp.; test: Effect on the intestinal bacterial colonies: Bacteroides sp. in feces; format: in vivo, Bacteroides sp. (feces of female ICR-JCL mice); conditions: after administration; 100 mg/kg orally once a day, 2 days; before administration 8.3
Protocol: as §1, §2, §3

[7] = system: Escherichia coli IFO 12734; test: Antibacterial activity, agar plate dilution method: E. coli IFO 12734; format: cell-based; conditions: Mueller-Hinton agar, 10^6 cells/ml, 37° C., 18 to 24 hours
Protocol: (§4) Antibacterial activity of the present compound was examined by agar plate dilution method while following the standard method of Japan Society of Chemotherapy and using the following strain: 1. Escherichia coli IFO 12734 Namely, after inoculating each bacteria on Mueller-Hinton culture medium, the inoculum was incubated for 18 to 48 hours at 37° C. and after adjusting the number of cells of each bacteria so as to contain 10^6 in one ml, the thus prepared specimen was used as the test bacterial liquid. Each of the present substances (the substance in Example 1 and the substance in Example 2) was dispersed in aqueous physiological saline solution at a predetermined concentration and the thus prepared dispersion was added to 9 times by volume of the culture medium for examining sensitivity (Mueller-Hinton culture medium) to prepare agar plates. On each agar plate, each of the test bacterial liquid was smeared at a width of about 2 cm, and the thus smeared agar plate was incubated for 18 to 24 hours at 37° C.

[8] = system: Proteus vulgaris IAM 1025; test: Antibacterial activity, agar plate dilution method: P. vulgaris IAM 1025; format: cell-based; conditions: Mueller-Hinton agar, 10^6 cells/ml, 37° C., 18 to 24 hours
Protocol: as §4, with “4. Proteus vulgaris IAM 1025” for “1. Escherichia coli IFO 12734”

[9] = system: Staphylcoccus aureus IAM 1011; test: Activation by rat liver homogenate (S-9 mix), penicillin cup proliferation-inhibiting circle; format: cell-based, Staphylococcus aureus; conditions: 20 min at 37° C., inhibiting circle diameter as % of that of the starting compound; for Degree of activation, Before adding S-9 mix: phosphoric acid buffer control; for Degree of activation, After adding S-9 mix: rat liver S-9 mix
Protocol: As an enzyme for activating metabolism of the present compound, rat liver homogenate (S-9, manufactured by Oriental Yeast Co., Ltd.) was used in preparing the following mixture (hereinafter referred to as S-9 mix).
Composition of S-9 mix (amount in one ml of S-9 mix)
A test solution of present compound was prepared by mixing 0.1 ml of a dispersion of the present compound and 0.9 ml of the thus prepared S-9 mix and shaking the thus prepared mixture for 20 min at 37° C. As a control, a mixture was prepared by mixing 0.1 ml of the dispersion of the present compound and 0.9 ml of the 0.2M phosphoric acid buffer and shaking the mixture for 20 min at 37° C.
As the test bacteria, Staphylcoccus aureus IAM 1011 was inoculated in Mueller-Hinton culture medium and after incubating the inoculum for 18 hours at 37° C., the number of the bacteria was adjusted to 10^8 /ml and the bacterial preparation was mixed with 50 times by volume of Mueller-Hinton culture medium, and an agar plate was prepared from the mixture.
After placing a penicillin cup of 8 mm in diameter on the thus prepared agar plate, 0.1 ml of the test solution of present compound prepared above was put into the cup, and after leaving the agar plate for 2 hours at 4° C., the agar plate was subjected to culture for 18 hours at 37° C. and the diameter of a proliferation-inhibiting circle appearing on the agar plate was measured.
The same procedures were carried out except for using 7β-[2-(2-amino-4-thiazolyl)-(Z)-2-methoxyiminoacetamido]-3-[(2-methyl-1,3,4-thiadiazol-5-yl)thiomethyl]-3-cephem-4-carboxylic acid used as a starting compound for producing the present compound in Example 1 instead of the present compound.
The percentage of the diameter of a proliferation-inhibiting circle due to the present compound to that due to the starting compound mentioned above was obtained, and from the following standards, the degree of activation was obtained.

Row | SMILES | Logarithmic value of the number of bacterial cells per one gram of feces, (1) E. coli [1] | Logarithmic value of the number of bacterial cells per one gram of feces, (2) P. aeruginosa [2] | Logarithmic value of the number of bacterial cells per one gram of feces, (3) Streptococcus sp. [3] | Logarithmic value of the number of bacterial cells per one gram of feces, (4) L. acidophilus [4] | Logarithmic value of the number of bacterial cells per one gram of feces, (5) L. bifidus [5] | Logarithmic value of the number of bacterial cells per one gram of feces, (6) Bacteroides sp. [6] | minimal inhibitory concentration (MIC), E. coli IFO 12734 [7] | minimal inhibitory concentration (MIC), Pro. vulgaris IAM 1025 [8] | Degree of activation, Before adding S-9 mix [9] | Degree of activation, After adding S-9 mix [9]
1 | CO/N=C(\C(=O)N[C@@H]1C(=O)N2C(C(=O)OCOC(=O)C(C)(C)C)=C(CSc3nnc(C)s3)CS[C@H]12)c1csc(NC(=O)C(Cl)Cl)n1 [Example 2] | 6.4 Logarithmic value of the number of bacterial cells per one gram of feces | < 3.0 Logarithmic value of the number of bacterial cells per one gram of feces | 7.0 Logarithmic value of the number of bacterial cells per one gram of feces | 8.9 Logarithmic value of the number of bacterial cells per one gram of feces | 8.5 Logarithmic value of the number of bacterial cells per one gram of feces | 8.2 Logarithmic value of the number of bacterial cells per one gram of feces | 50 | 50 | ± (0 to 1%) | ++++ (100 to 150%)
2 | CO/N=C(\C(=O)N[C@@H]1C(=O)N2C(C(=O)O)=C(CSc3nnc(C)s3)CS[C@H]12)c1csc(NC(=O)C(Cl)Cl)n1 [Example 1, 7β-[2-(2-dichloroacetamido-4-thiazolyl)-(Z)-2-methoxyiminoacetamido]-3-[(2-methyl-1,3,4-thiadiazol-5-yl)thiomethyl]-3-cephem-4-carboxylic acid] | – | – | – | – | – | – | 0.1 | 0.05 | ++++ (100 to 150%) | ++++ (100 to 150%)
